Some results are limits rather than exact numbers.

Chain of Bek (P21802 431-767 limits assumed): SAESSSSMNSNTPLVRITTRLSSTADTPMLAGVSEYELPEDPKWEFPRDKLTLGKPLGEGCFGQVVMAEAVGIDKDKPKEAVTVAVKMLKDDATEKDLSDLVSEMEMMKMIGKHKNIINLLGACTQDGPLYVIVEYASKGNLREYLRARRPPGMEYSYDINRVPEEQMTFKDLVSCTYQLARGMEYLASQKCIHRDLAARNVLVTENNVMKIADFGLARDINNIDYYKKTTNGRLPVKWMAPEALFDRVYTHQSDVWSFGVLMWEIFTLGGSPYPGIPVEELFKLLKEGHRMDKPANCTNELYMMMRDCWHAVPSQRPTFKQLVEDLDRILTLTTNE

In the assay the target is Bek (Homo sapiens, UniProt P21802). Kind of assay: Inhibitory activity against Bek-autophosphorylation using ELISA method in OCUM-2MD3 cells. Format: cell-based. The conditions noted are these: 1 hr with compound, read-out: IC50 (concentration necessary for inhibiting 50% of Bek-phosphorylation). The procedure:
Human scirrhus stomach cancer cells OCUM-2MD3 (kindly provided by Dr. Kosei Hirakawa, Osaka City University) were cultured in an RPMI medium containing 10% fetal calf serum (purchased from ICN) within a 5% carbon dioxide incubator until 50 to 90% confluent. The harvested cells were seeded onto 96-well flat-bottom plate in RPMI containing 0.1% fetal calf serum at 3.5×10^4 cells per well, followed by cultivation at 37° C. overnight. A solution of the test compound in dimethyl sulfoxide was added to each well, and the cultivation was continued at 37° C. for additional one hr. The medium was removed, and 50 μl of lysis buffer (20 mM HEPES (pH 7.4), 150 mM NaCl, 0.2% Triton X-100, 10% glycerol, 5 mM sodium orthovanadylate, 5 mM disodium ethylenediaminetetraacetate, and 2 mM Na4P2O7) was then added thereto. The mixture was shaken at 4° C. for 2 hr to prepare cell extracts.
Separately, phosphate buffered saline (50 μl, pH 7.4) containing 5 μg/ml of anti-phospho-tyrosine antibody (PY20; purchased from Transduction Laboratories) was added to a microplate for ELISA (Maxisorp; purchased from NUNC), followed by standing at 4° C. overnight to form a solid phase on the wells. After washing of the plate, 300 μl of a blocking solution was added, followed by standing at room temperature for 2 hr to perform blocking. After washing, the whole quantity of the cell extracts was transferred to the wells, and the plate was then allowed to stand at 4° C. overnight. After washing, an anti-Bek antibody (Bek (C-17), purchased from Santa Cruz Biotechnology) or Anti-Human K-sam Rabbit IgG Affinity Purity (purchased from IBL Co., Ltd.) was allowed to react at room temperature for one hr, and, after washing, a peroxidase-labeled anti-rabbit Ig antibody (purchased from Amersham) was allowed to react at room temperature for one hr. After washing, a chromophoric substrate for peroxidase (purchased from Sumitomo Bakelite Co., Ltd.) was added thereto to initiate a reaction. After a suitable level of color development, a reaction termination solution was added to stop the reaction, and the absorbance at 450 nm was measured with a microplate reader. The Bek-phosphorylation activity for each well was determined by presuming the absorbance without the addition of the medicament to be 100% Bek-phosphorylation activity and the absorbance with the addition of a large excess of a positive control (N-{4-[(6,7-dimethoxy-4-quinolyl)oxy]phenyl}-N′-(3,3-dimethylbutyl)urea, 1000 nM) to be 0% Bek-phosphorylation activity. The concentration of the test compound was varied on several levels, the Bek-phosphorylation inhibitory activity was determined for each case, and the concentration of the test compound necessary for inhibiting 50% of Bek-phosphorylation (IC50) was calculated.
Consider `COc1cc2nccc(Oc3cc(C)c(Nc4ccc(C(C)(C)C)cc4)cc3C)c2cc1OC` [Compound 17, (4-Tert-butylphenyl)-[4-(6,7-dimethoxyquinolin-4-yloxy)-2,5-dimethylphenyl]amine], for which the IC50 is 5610 nM. As to `COc1cc2nccc(Oc3ccc(NC(=O)NCCC(C)(C)C)cc3OC)c2cc1OC` [Compound 139, 1-[4-(6,7-Dimethoxy-quinolin-4-yloxy)-3-methoxy-phenyl]-3-(3,3-dimethyl-butyl)-urea], the IC50 is 1160 nM.

With `COc1cc2c(Oc3ccc(Nc4ccc(C(C)(C)C)cc4)cc3)ccnc2cc1OCCN(C)C` [Compound 40, N1-[4-(Tert-butyl)phenyl]-4-({7-[2-(dimethylamino)ethoxy]-6-methoxy-4-quinolyl}oxy)aniline], the IC50 was 924 nM. Turning to `COc1cc2c(Oc3ccc(Nc4ccc(C(C)(C)C)cc4)c(Cl)c3)ccnc2cc1OCCN1CCC(O)CC1` [Compound 278, 1-(2-{4-[4-(4-Tert-butyl-phenylamino)-3-chloro-phenoxy]-6-methoxy-quinolin-7-yloxy}-ethyl)-piperidin-4-ol], the IC50 is 1120 nM. Take `COc1cc2c(Oc3ccc(Nc4ccc(C(C)(C)C)cc4)cc3)ccnc2cc1OCCCN1CCC(CO)CC1` [Compound 217, [1-(3-{4-[4-(4-Tert-butyl-phenylamino)-phenoxy]-6-methoxy-quinolin-7-yloxy}-propyl)-piperidin-4-yl]-methanol]: the IC50 was found to be 40.9 nM.

As to `COc1cc2nccc(Oc3ccc(NC(=O)NCCC(C)(C)C)c(F)c3)c2cc1OC` [Compound 111, 1-[4-(6,7-Dimethoxy-quinolin-4-yloxy)-2-fluoro-phenyl]-3-(3,3-dimethyl-butyl)-urea], the IC50 was under 10 nM. The same measure for `COc1cc2c(Oc3ccc(NC(=O)NCCC(C)(C)C)c(Cl)c3)ccnc2cc1OCCCN(C)C` [Compound 172, 1-{2-Chloro-4-[7-(3-dimethylamino-propoxy)-6-methoxy-quinolin-4-yloxy]-phenyl}-3-(3,3-dimethyl-butyl)-urea]: under 10 nM; for `COc1cc2c(Oc3ccc(NC(=O)NCCC(C)(C)C)cc3)ccnc2cc1OCCN1CCC(O)CC1` [Compound 373, 1-(3,3-Dimethyl-butyl)-3-(4-{7-[2-(4-hydroxy-piperidin-1-yl)-ethoxy]-6-methoxy-quinolin-4-yloxy}-phenyl)-urea]: under 10 nM; for `COc1cc2c(Oc3ccc(NC(=O)NCCC(C)(C)C)c(F)c3)ccnc2cc1OCCN1CCC(CCO)CC1` [Compound 301, 1-(3,3-Dimethyl-butyl)-3-[2-fluoro-4-(7-{2-[4-(2-hydroxy-ethyl)-piperidin-1-yl]-ethoxy}-6-methoxy-quinolin-4-yloxy)-phenyl]-urea]: 38.4 nM.

For `COc1cc2c(Oc3ccc(Nc4ccc(C(C)(C)C)cc4)cc3)ccnc2cc1OCC(O)CN1CCOCC1` (stereo not drawn) [Compound 59, 1-{4-[4-(4-Tert-butyl-phenylamino)phenoxy]-6-methoxyquinolin-7-yloxy}-3-morpholin-4-ylpropan-2-ol], the IC50 amounted to 143 nM.

In the case of `COc1cc2c(Oc3ccc(NC(=O)NCCC(C)(C)C)cc3)ccnc2cc1OCCCCl` [Compound 151, 1-{4-[7-(3-Chloro-propoxy)-6-methoxy-quinolin-4-yloxy]-phenyl}-3-(3,3-dimethyl-butyl)-urea], the IC50 stood at 221 nM. Consider `COc1cc2ncnc(Oc3ccc(Nc4ccc(C(C)C)cc4)cc3)c2cc1OC` [Compound 72, [4-(6,7-Dimethoxyquinazolin-4-yloxy)phenyl]-(4-isopropyl-phenyl)amine], for which the IC50 came out at 836 nM.

As for `COc1cc2c(Oc3ccc(NC(=O)NCCC(C)(C)C)c(Cl)c3)ccnc2cc1OCCN1CCC(O)CC1` [Compound 274, 1-(2-Chloro-4-{7-[2-(4-hydroxy-piperidin-1-yl)-ethoxy]-6-methoxy-quinolin-4-yloxy}-phenyl)-3-(3,3-dimethyl-butyl)-urea], the IC50 was determined as 27.8 nM.

Regarding `COc1cc2c(Oc3ccc(NC(=O)NCCC(C)(C)C)c(F)c3)ccnc2cc1OCCN(C)CCO` [Compound 330, 1-(3,3-Dimethyl-butyl)-3-[2-fluoro-4-(7-{2-[(2-hydroxy-ethyl)-methyl-amino]-ethoxy}-6-methoxy-quinolin-4-yloxy)-phenyl]-urea], the IC50 was 17.8 nM. The result for `COc1cc2c(Oc3ccc(Nc4ccc(C(C)(C)C)cc4)cc3)ccnc2cc1OCCCN1CCC(CCO)CC1` [Compound 218, 2-[1-(3-{4-[4-(4-Tert-butyl-phenylamino)-phenoxy]-6-methoxy-quinolin-7-yloxy}-propyl)-piperidin-4-yl]-ethanol] reads 96 nM; that for `COc1cc2c(Oc3ccc(NC(=O)NCCC(C)(C)C)cc3)ccnc2cc1OCCN1CC(C)OC(C)C1` (stereo not drawn) [Compound 119, 1-(3,3-Dimethyl-butyl)-3-(4-{7-[2-(2,6-dimethyl-morpholin-4-yl)-ethoxy]-6-methoxy-quinolin-4-yloxy}-phenyl)-urea], under 10 nM; that for `COc1cc2c(Oc3ccc(NC(=O)NCCC(C)(C)C)cc3)ccnc2cc1OCCCN1CCC(c2ccccc2)CC1` [Compound 246, 1-(3,3-Dimethyl-butyl)-3-(4-{6-methoxy-7-[3-(4-phenyl-piperidin-1-yl)-propoxy]-quinolin-4-yloxy}-phenyl)-urea], 30.9 nM.

On to `COc1cc2c(Oc3ccc(NC(=O)NCCC(C)(C)C)cc3F)ccnc2cc1OCCN1CCCCC1` [Compound 129, 1-(3,3-Dimethyl-butyl)-3-{3-fluoro-4-[6-methoxy-7-(2-piperidin-1-yl-ethoxy)-quinolin-4-yloxy]-phenyl}-urea], for which the IC50 came out at 48.1 nM. Regarding `COCCNCCCOc1cc2nccc(Oc3ccc(NC(=O)NCCC(C)(C)C)cc3)c2cc1OC` [Compound 271, 1-(3,3-Dimethyl-butyl)-3-(4-{6-methoxy-7-[3-(2-methoxy-ethylamino)-propoxy]-quinolin-4-yloxy}-phenyl)-urea], the IC50 is 33.2 nM.

In the case of `COc1cc2c(Oc3ccc(NC(=O)NCCC(C)(C)C)c(F)c3)ccnc2cc1OCCCN1CCOCC1` [Compound 210, 1-(3,3-Dimethyl-butyl)-3-{2-fluoro-4-[6-methoxy-7-(3-morpholin-4-yl-propoxy)-quinolin-4-yloxy]-phenyl}-urea], the IC50 was under 10 nM.

In the case of `COc1cc2c(Oc3ccc(NC(=O)NCCC(C)(C)C)c(Cl)c3)ccnc2cc1OCCO` [Compound 211, 1-{2-Chloro-4-[7-(2-hydroxy-ethoxy)-6-methoxy-quinolin-4-yloxy]-phenyl}-3-(3,3-dimethyl-butyl)-urea], the IC50 is under 10 nM. The result for `COc1cc2c(Oc3ccc(NC(=O)NCCC(C)(C)C)cc3F)ccnc2cc1OCCN1CCC(CO)CC1` [Compound 295, 1-(3,3-Dimethyl-butyl)-3-(3-fluoro-4-{7-[2-(4-hydroxymethyl-piperidin-1-yl)-ethoxy]-6-methoxy-quinolin-4-yloxy}-phenyl)-urea] reads 14.4 nM; that for `COc1cc2c(Oc3ccc(NC(=O)NCCC(C)(C)C)cc3Cl)ccnc2cc1OCCN1CCC(CCO)CC1` [Compound 315, 1-[3-Chloro-4-(7-{2-[4-(2-hydroxy-ethyl)-piperidin-1-yl]-ethoxy}-6-methoxy-quinolin-4-yloxy)-phenyl]-3-(3,3-dimethyl-butyl)-urea], 133 nM.

Consider `COc1cc2c(Oc3ccc(NC(=O)NCCC(C)(C)C)cc3)ccnc2cc1OCCN(CCO)Cc1ccccc1` [Compound 368, 1-[4-(7-{2-[Benzyl-(2-hydroxy-ethyl)-amino]-ethoxy}-6-methoxy-quinolin-4-yloxy)-phenyl]-3-(3,3-dimethyl-butyl)-urea], for which the IC50 was found to be 157 nM. For the compound `COc1cc2c(Oc3ccc(NC(=O)NCCC(C)(C)C)c(Cl)c3)ccnc2cc1OCCN1CCCC1` [Compound 165, 1-{2-Chloro-4-[6-methoxy-7-(2-pyrrolidin-1-yl-ethoxy)-quinolin-4-yloxy]-phenyl}-3-(3,3-dimethyl-butyl)-urea], the IC50 turned out to be 68.9 nM. On to `COc1cc2c(Oc3ccc(NC(=O)NCCC(C)(C)C)c(F)c3)ccnc2cc1OCC(O)CN1CCOCC1` (stereo not drawn) [Compound 209, 1-(3,3-Dimethyl-butyl)-3-{2-fluoro-4-[7-(2-hydroxy-3-morpholin-4-yl-propoxy)-6-methoxy-quinolin-4-yloxy]-phenyl}-urea], for which the IC50 was under 10 nM. The same measure for `COc1cc2c(Oc3ccc(Nc4ccc(C(C)(C)C)cc4)cc3)ccnc2cc1OCCN(CC(C)O)CC(C)O` (stereo not drawn) [Compound 352, 1-[(2-{4-[4-(4-Tert-butyl-phenylamino)-phenoxy]-6-methoxy-quinolin-7-yloxy}-ethyl)-(2-hydroxy-propyl)-amino]-propan-2-ol]: 54.7 nM.

The record behind these values is US7495104B2, “Quinoline or quinazoline derivatives inhibiting auto-phosphorylation of fibroblast growth factor receptors” (Kirin Beer Kabushiki Kaisha, priority 2001, dated 2009).
